Measured values published in patent US20120309792A1, “TETRAZOLE DERIVATIVES AS NICOTINIC ACETYLCHOLINE RECEPTOR MODULATORS” (NEUROSEARCH A/S, priority 2009, published 2012).

Molecular target: T1, human nicotinic acetylcholine receptor subtype a4b2 (Homo sapiens, UniProt P17787+P43681)
T1 construct: expressed in transfected cells
Experiment: Characterization of hα4β2 positive allosteric modulators using FLIPR
Format: cell-based
Details: shift of nicotine pEC50 in presence of 10 μM test compound; HEK-293 cells stably expressing hα4β2; fluo-4 calcium FLIPR
Method: Characterization of hα4β2 Positive Allosteric Modulators Using FLIPR
The modulator activity is determined as a fluorescence-based assay using a Fluorometric Imaging Plate Reader (FLIPR) as described below in more detail.
HEK-hα4β2 cells were seeded on poly-D-lysin-coated 384 well microtiter plates and allowed to proliferate for 24 h. Dye loading was performed by incubating cells with 2 μM fluo-4/AM for 1.5 h at room temperature. Dye not taken up by the cells was removed by aspiration, followed by three washing cycles with NMDG Ringer buffer (containing in mM: 140 NMDG, 5 KCl, 1 MgCl2, 10 CaCl2, 10 HEPES, pH 7.4). The microtiter plates were then placed in the FLIPR and subjected to test solutions.
Full concentration-response curves of nicotine were generated in the absence and presence test compound. Background-subtracted nicotine-mediated calcium responses were determined and normalized to maximal nicotine control responses. Nicotine potencies (expressed as pEC50) were calculated and the difference between the functional potency in the absence and presence of test compound was determined (Δ pEC50).
The modulatory activity of compounds of the invention determined as ΔpEC50 values in the presence of 10 μM of test compound are presented in Table 1 below.

T1 sequence (P43681 29-627 limits assumed): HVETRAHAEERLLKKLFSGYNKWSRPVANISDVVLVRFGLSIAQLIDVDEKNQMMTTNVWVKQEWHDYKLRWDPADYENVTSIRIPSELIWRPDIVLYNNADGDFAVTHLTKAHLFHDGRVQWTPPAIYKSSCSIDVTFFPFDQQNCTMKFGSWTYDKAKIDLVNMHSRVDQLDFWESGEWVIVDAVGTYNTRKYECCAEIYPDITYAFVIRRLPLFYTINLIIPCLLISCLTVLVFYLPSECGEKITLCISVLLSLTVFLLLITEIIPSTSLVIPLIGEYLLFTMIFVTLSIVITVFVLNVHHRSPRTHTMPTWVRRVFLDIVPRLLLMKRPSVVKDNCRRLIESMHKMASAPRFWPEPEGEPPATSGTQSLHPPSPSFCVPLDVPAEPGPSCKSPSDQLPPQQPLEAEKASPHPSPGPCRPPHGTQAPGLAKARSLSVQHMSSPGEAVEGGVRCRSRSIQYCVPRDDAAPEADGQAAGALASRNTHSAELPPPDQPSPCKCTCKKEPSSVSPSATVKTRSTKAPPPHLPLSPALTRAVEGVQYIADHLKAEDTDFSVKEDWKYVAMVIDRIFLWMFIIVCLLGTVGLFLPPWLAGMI
T1 sequence (P17787 26-502): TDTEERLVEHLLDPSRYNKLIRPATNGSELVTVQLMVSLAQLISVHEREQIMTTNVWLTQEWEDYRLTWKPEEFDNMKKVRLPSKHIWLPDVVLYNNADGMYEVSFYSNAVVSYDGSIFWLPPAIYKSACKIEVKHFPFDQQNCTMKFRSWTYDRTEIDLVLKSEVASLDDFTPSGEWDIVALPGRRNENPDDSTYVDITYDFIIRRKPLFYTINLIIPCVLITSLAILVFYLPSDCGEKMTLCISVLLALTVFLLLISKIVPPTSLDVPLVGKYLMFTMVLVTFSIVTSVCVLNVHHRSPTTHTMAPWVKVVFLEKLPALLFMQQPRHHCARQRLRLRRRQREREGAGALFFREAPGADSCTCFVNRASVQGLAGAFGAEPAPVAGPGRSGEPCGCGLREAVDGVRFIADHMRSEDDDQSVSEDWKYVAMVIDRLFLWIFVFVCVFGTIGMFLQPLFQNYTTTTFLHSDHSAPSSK

| ΔpEC50 | Structure (SMILES) |
| --- | --- |
| 1.5 | Fc1cncc(-n2nnc(-c3cccnc3)n2)c1 [Compound A1, 3-Fluoro-5-[5-(3-pyridyl)tetrazol-2-yl]pyridine] |
| 0.55 | Brc1cncc(-n2nnc(-c3cccnc3)n2)c1 [Compound B2, 3-Bromo-5-[5-(3-pyridyl)tetrazol-2-yl]pyridine] |
| −0.16 | COc1cncc(-n2nnc(-c3cccnc3)n2)c1 [Compound B3, 3-Methoxy-5-[5-(3-pyridyl)tetrazol-2-yl]pyridine] |
| 1.0 | Cc1ccc(-c2nnn(-c3cccnc3)n2)cn1 [Compound B4, 2-Methyl-5-[2-(3-pyridyl)tetrazol-5-yl]pyridine] |
| 1.7 | Cc1ccc(-n2nnc(-c3cccnc3)n2)cn1 [Compound B5, 2-Methyl-5-[5-(3-pyridyl)tetrazol-2-yl]pyridine] |
| 0.16 | Cc1cncc(-n2nnc(-c3cccnc3)n2)c1 [Compound B6, 3-Methyl-5-[5-(3-pyridyl)tetrazol-2-yl]pyridine] |
| 0.11 | Cc1ncccc1-n1nnc(-c2cccnc2)n1 [Compound B7, 2-Methyl-3-[5-(3-pyridyl)tetrazol-2-yl]pyridine] |
| −0.29 | Cc1ncccc1-c1nnn(-c2cccnc2)n1 [Compound B8, 2-Methyl-3-[2-(3-pyridyl)tetrazol-5-yl]pyridine] |
| 1.9 | Fc1ccc(-n2nnc(-c3cccnc3)n2)cn1 [Compound B9, 2-Fluoro-5-[5-(3-pyridyl)tetrazol-2-yl]pyridine] |
| 1.3 | Fc1cncc(-c2nnn(-c3cncc(F)c3)n2)c1 [Compound B10, 3-Fluoro-5-[2-(5-fluoro-3-pyridyl)tetrazol-5-yl]pyridine] |
| 1.4 | Fc1cncc(-c2nnn(-c3ccc(F)nc3)n2)c1 [Compound B11, 3-Fluoro-5-[2-(6-fluoro-3-pyridyl)tetrazol-5-yl]pyridine] |
| 1.6 | Fc1cncc(-n2nnc(-c3ccc(F)nc3)n2)c1 [Compound B12, 2-Fluoro-5-[2-(5-fluoro-3-pyridyl)tetrazol-5-yl]pyridine] |
| 1.8 | Clc1ccc(-c2nnn(-c3cccnc3)n2)cn1 [Compound B13, 2-Chloro-5-[2-(3-pyridyl)tetrazol-5-yl]pyridine] |
| 1.5 | Fc1ccc(-c2nnn(-c3cccnc3)n2)cn1 [Compound B14, 2-Fluoro-5-[2-(3-pyridyl)tetrazol-5-yl]pyridine] |
| 1.7 | Clc1cncc(-c2nnn(-c3cccnc3)n2)c1 [Compound B15, 3-Chloro-5-[2-(3-pyridyl)tetrazol-5-yl]pyridine] |
| 1.7 | Fc1cncc(-c2nnn(-c3cccnc3)n2)c1 [Compound B16, 3-Fluoro-5-[2-(3-pyridyl)tetrazol-5-yl]pyridine] |
| 2.0 | Clc1ccc(-n2nnc(-c3cccnc3)n2)cn1 [Compound B17, 2-chloro-5-[5-(3-pyridyl)tetrazol-2-yl]pyridine] |
| 1.5 | Fc1ccc(-n2nnc(-c3cncc(Cl)c3)n2)cn1 [Compound B18, 3-chloro-5-[2-(6-fluoro-3-pyridyl)tetrazol-5-yl]pyridine] |
| 1.6 | Fc1cncc(-c2nnn(-c3ccc(Cl)nc3)n2)c1 [Compound B19, 2-chloro-5-[5-(5-fluoro-3-pyridyl)tetrazol-2-yl]pyridine] |
| 0.74 | Fc1cncc(-n2nnc(-c3ccc(Cl)nc3)n2)c1 [Compound B20, 2-chloro-5-[2-(5-fluoro-3-pyridyl)tetrazol-5-yl]pyridine] |
| 0.8 | Clc1cncc(-n2nnc(-c3cccnc3)n2)c1 [Compound B21, 3-chloro-5-[5-(3-pyridyl)tetrazol-2-yl]pyridine] |
| 1.1 | Fc1cncc(-n2nnc(-c3cncc(Cl)c3)n2)c1 [Compound B22, 3-chloro-5-[2-(5-fluoro-3-pyridyl)tetrazol-5-yl]pyridine] |
| 1.5 | Brc1cncc(-c2nnn(-c3cccnc3)n2)c1 [Compound B23, 3-bromo-5-[2-(3-pyridyl)tetrazol-5-yl]pyridine] |
| 1.6 | Fc1ccc(-n2nnc(-c3cccnc3F)n2)cn1 [Compound B24, 2-fluoro-3-[2-(6-fluoro-3-pyridyl)tetrazol-5-yl]pyridine] |
| 0.58 | Fc1ccc(-n2nnc(-c3cncc(I)c3)n2)cn1 [Compound B25, 2-fluoro-5-[5-(5-iodo-3-pyridyl)tetrazol-2-yl]pyridine] |

| Structure (SMILES) | ΔpEC50 |
| --- | --- |
| O=C(O)/C=C/C(=O)O.c1cncc(-c2nnn(-c3cccnc3)n2)c1 [Compound B1, 3-[2-(3-Pyridyl)tetrazol-5-yl]pyridine fumarate] | 1.8 |
